The values below come from publication PMC3863987 (Journal of medicinal chemistry, 2012).

The nature of one data set: Solubility. Type of data set: physicochemical. The note with it: ethyl ester in position 3 in place of the aliphatic chain.
The target in a further data set is T1, recombinant P. vivax NMT (Plasmodium vivax, UniProt A5K1A2).
T1 sequence (A5K1A2 1-410): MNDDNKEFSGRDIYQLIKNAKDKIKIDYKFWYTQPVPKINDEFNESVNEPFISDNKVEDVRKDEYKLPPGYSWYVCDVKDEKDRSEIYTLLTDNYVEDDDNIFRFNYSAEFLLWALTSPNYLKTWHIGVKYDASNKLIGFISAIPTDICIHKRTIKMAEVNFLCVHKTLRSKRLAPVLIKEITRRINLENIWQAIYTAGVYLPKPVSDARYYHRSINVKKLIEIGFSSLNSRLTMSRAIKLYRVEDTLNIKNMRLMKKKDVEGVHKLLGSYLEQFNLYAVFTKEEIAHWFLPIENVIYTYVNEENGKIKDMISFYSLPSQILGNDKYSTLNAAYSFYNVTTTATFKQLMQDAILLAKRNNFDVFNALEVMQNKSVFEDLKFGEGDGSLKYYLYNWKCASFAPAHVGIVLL
Kind of data set: Fluorogenic NMT enzyme assay, P. vivax NMT. In kind it is biochemical.

Substrate in data set [1]: C[C@H](NC(=O)[C@H](CC(=O)O)NC(=O)[C@H](CCCCN)NC(=O)[C@@H]1CCCN1C(=O)[C@H](CCCCN)NC(=O)[C@H](CO)NC(=O)[C@H](CCCCN)NC(=O)[C@H](CC(N)=O)NC(=O)[C@H](CO)NC(=O)CN)C(=O)N[C@@H](CO)C(=O)N[C@@H](CCC(N)=O)C(=O)N[C@@H](CCCNC(=N)N)C(=O)N[C@@H](CCCNC(=N)N)C(=O)N[C@@H](CCCNC(=N)N)C(N)=O
Description: Fluorogenic NMT enzyme assay, P. vivax NMT. In kind it is biochemical, Plasmodium vivax. The note with it: other: peptide substrate for the PvNMT assay, in assay conditions.

The Km is the substrate concentration at which the rate is half of its maximum.

Take `CCOC(=O)c1cnc2ccc(OC)cc2c1SCCC#N` [Compound 7]: in the data set “Solubility”, the “solubility (in words)” value is “greatly improved solubility”. In the case of `CCOC(=O)c1c(C)nc2ccccc2c1NCC#N.Cl` [Compound 17], at recombinant P. vivax NMT, the “inhibitory activity against PvNMT (in words)” value is “complete loss of activity”.

For `CCCCc1c(C)nc2ccc(OC)cc2c1SCCC#N.Cl` [Compound 1, 3-butyl-4-((2-cyanoethyl)thio)-6-methoxy-2-methyl-quinoline], the “inhibitory activity against PvNMT (in words)” value at recombinant P. vivax NMT was “micromolar IC50”.

B1: recombinant P. vivax NMT (Plasmodium vivax Sal-1) (protein)
chain: MNDDNKEFSGRDIYQLIKNAKDKIKIDYKFWYTQPVPKINDEFNESVNEPFISDNKVEDVRKDEYKLPPGYSWYVCDVKDEKDRSEIYTLLTDNYVEDDDNIFRFNYSAEFLLWALTSPNYLKTWHIGVKYDASNKLIGFISAIPTDICIHKRTIKMAEVNFLCVHKTLRSKRLAPVLIKEITRRINLENIWQAIYTAGVYLPKPVSDARYYHRSINVKKLIEIGFSSLNSRLTMSRAIKLYRVEDTLNIKNMRLMKKKDVEGVHKLLGSYLEQFNLYAVFTKEEIAHWFLPIENVIYTYVNEENGKIKDMISFYSLPSQILGNDKYSTLNAAYSFYNVTTTATFKQLMQDAILLAKRNNFDVFNALEVMQNKSVFEDLKFGEGDGSLKYYLYNWKCASFAPAHVGIVLL
Consider B1, for which the Michaelis constant (Km) in data set [1] is 5.71 ± 0.6 µM.
